In brackets after ≈: the same amount, converted by molar mass. Like-named read-outs stand apart in the source and are kept apart here.
Key:
HSV-1 = HSV-1 antiviral assay: plaque reduction in WI-38 cell culture monolayers; type: cell-based, herpes simplex virus type 1, strain Schooler; conditions: read-out: ID50 HSV-1
Method: (§1) Assays were performed in cell culture systems to determine the concentrations of compounds that are effective in preventing several kinds of viral infections.
(§2) HSV-1 (herpes simplex virus type 1, strain Schooler), HSV-2 (herpes simplex virus type 2, strain 186), VZV (varicella zoster virus, strain ELLEN).
(§3) HSV-1, HSV-2, and VZV antiviral assays: Virus was adsorbed to WI-38 cell culture monolayers in 6 well culture plates (Costar, Cambridge, Mass.) for 1 hour prior to addition of maintenance medium containing duplicate dilutions of the test compound. Inhibition of plaque development was evaluated on fixed and stained monolayers after 4 days incubation at 37° C. for HSV-1 and HSV-2 and after 6-7 days incubation at 37° C. for VZV. ID50 values were determined from the drug concentration which conferred at least a 50% plaque reduction compared to virus controls (Table 1).

HSV-2 = HSV-2 antiviral assay: plaque reduction in WI-38 cell culture monolayers; type: cell-based, herpes simplex virus type 2, strain 186; conditions: read-out: ID50 HSV-2
Method: as §1, §2, §3

VZV = VZV antiviral assay: plaque reduction in WI-38 cell culture monolayers; type: cell-based, varicella zoster virus, strain ELLEN; conditions: Human alphaherpesvirus 3, 156 h; WI-38 cells; at least 50% plaque reduction vs virus controls; 6-7 days at 37° C.; read-out: ID50 VZV
Method: as §1, §2, §3

[1] = Human alphaherpesvirus 1, 96 h, WI-38 cells, at least 50% plaque reduction vs virus controls, 4 days at 37° C.
[2] = Human alphaherpesvirus 2, 96 h, WI-38 cells, at least 50% plaque reduction vs virus controls, 4 days at 37° C.

## Nc1nc2c(ncn2[C@@H]2CO[C@H](CO)[C@H]2O)c(=O)[nH]1
HSV-1; [1]
  IC50: 2 to 5 µg/mL (≈ 7.48 to 18.7 µM)
HSV-2; [2]
  IC50: 2 µg/mL (≈ 7.48 µM)
VZV
  IC50: 50 to 100 µg/mL (≈ 187 to 374 µM)

## Nc1ccn([C@@H]2CO[C@H](CO)[C@H]2O)c(=O)n1 [[3R-(3α,4β,5α)]-4-Amino-1-[tetrahydro-4-hydroxy-5-(hydroxymethyl)-3-furanyl]-2(1H)-pyrimidinone]
HSV-1; Human alphaherpesvirus 1, WI-38, 96 h
  IC50: > 100 µg/mL
HSV-2; Human alphaherpesvirus 2, WI-38, 96 h
  IC50: > 100 µg/mL
VZV
  IC50: 25 to 50 µg/mL (≈ 110 to 220 µM)

## Cc1cn([C@@H]2CO[C@H](CO)[C@H]2O)c(=O)[nH]c1=O [[3R-(3α,4β,5α)]-5-Methyl-1-[tetrahydro-4-hydroxy-5-(hydroxymethyl)-3-furanyl]2,4(1H,3H)pyrimidinedione]
HSV-1; [1]
  IC50: 10 µg/mL (≈ 41.3 µM)
HSV-2; [2]
  IC50: > 100 µg/mL
VZV
  IC50: > 100 µg/mL
